{"source": "patent US20150064713A1", "about": "“METHODS, KITS AND MEANS FOR DETERMINING INTRACELLULAR INTERACTIONS” (priority 2013, published 2015)", "system": "regulatory and catalytic subunits of the cAMP dependent protein kinase A (PKA)", "assay": "PKA regulatory/catalytic subunit interaction monitored in living cells via VSVG RII-β-PARC (bait) and mCherry-cat-α (prey), TIRFM", "format": "cell-based", "conditions": "mCherry-cat-α prey, within seconds upon addition", "source_text": "FIG. 8 Monitoring protein reaction dynamics inside individual cells. A: Domain structures of bait-PARCs to measure PKA subunit interactions. B: A bait-PARC containing the regulatory domain RII-β of PKA was co-expressed with the cytosolic prey protein (mCherry-cat- ? to monitor their interaction dynamics inside living cells. Left: Recruitment of the prey to bait microstructures before and after pharmacological perturbation. Right: Derived prey recruitment kinetics (Iso: Isoproterenol; Prop: Propranolol; F/I: forskolin+IBMX; see Supplementary Methods for details). Scale bar: 5 μm. c: Two distinct regulatory domains on bait-PARCs were co-expressed together with the prey protein mCherry-cat- ? . Left: Image of a representative experiment depicting cells grown on a DNA-immobilized antibody array. The checkerboard pattern of antibodies is overlayed with magenta (anti-HA) or cyan (anti-VSVG) circles. Right: The recruitment of prey proteins to the two distinct bait proteins was monitored in individual microstructured spots via TIRFM during pharmacological perturbation (Iso: Isoproterenol; ATP: adenosine triphosphate; F/I: forskolin+IBMX). Scale bar: 10 μm.\nAgonist induced activation of G-protein coupled receptors (GPCRs) leads to the dissociation of regulatory and catalytic subunits of the cAMP dependent protein kinase A (PKA) (Wong and Scott, 2004). […]", "data": [{"molecule": "CC(C)NCC(O)c1ccc(O)c(O)c1", "note": "(stereo not shown) [isoproterenol]", "values": [{"measurement": "interaction between bait and prey upon addition of agonist", "result": "the interaction between bait and prey was lost"}]}]}
